Data: PubChem BioAssay AID1648 (Sanford-Burnham Center for Chemical Genomics, 2009)
Active and inactive are the calls of the source. How the calls were made is not given here.

What follows are compounds tested against Serine/threonine-protein kinase mTOR (Homo sapiens) (UniProt P42345) (assay: binders of mTOR FRB domain, biophysical, NMR (AID 1648)). Conditions: NMR binding to FRB domain, chemical shift.
Serine/threonine-protein kinase mTOR (Homo sapiens), sequence (P42345 2015-2114): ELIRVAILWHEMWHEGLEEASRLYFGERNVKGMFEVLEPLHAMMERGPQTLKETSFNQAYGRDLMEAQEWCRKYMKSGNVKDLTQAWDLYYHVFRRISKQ
In the case of `NC(=O)CC(=O)NC12CC3CC(CC(C3)C1)C2`, the Kd is reported as > 4 mM (inactive). With `CCOC(=O)c1ccc(F)c(F)c1` the Kd was > 4 mM (inactive). In the case of `COc1ccc(C)cc1S(=O)(=O)Nc1ccccc1C`, the Kd is reported as > 4 mM (inactive). With `COC(=O)CC1C(C)(C)C(OC(C)=O)[C@@H]2[C@@H](OC(C)=O)[C@]34O[C@@]2(O)[C@]1(C)C3CC[C@]1(C)C4=CC(=O)O[C@H]1c1ccoc1` (stereo partly drawn) the Kd was > 4 mM (inactive). In the case of `COc1ccc2cnn(-c3ccccc3)c(=O)c2c1OC`, the Kd is reported as > 4 mM (inactive). In the case of `COC(=O)[C@H]1[C@H]2C[C@H]3c4[nH]c5ccccc5c4CCN3C[C@H]2CC[C@@H]1O`, the Kd is reported as > 4 mM (inactive). In the case of `Cc1nnc(NCc2ccc3c(c2)OCO3)[nH]c1=O`, the Kd is reported as > 4 mM (inactive). In the case of `O=C1C=CC(=O)N1c1ccc(N2CCOCC2)cc1`, the Kd is reported as > 4 mM (inactive). With `NC(=O)c1ccc(NC(=O)c2cccnc2)cc1` the Kd was > 4 mM (inactive). In the case of `Cc1nn2c(-c3ccncc3)nnc2c2ccccc12`, the Kd is reported as > 4 mM (inactive). `CS(=O)(=O)c1ccc(N)cc1` was tested, and the Kd was > 4 mM (inactive). In the case of `O=C(Cc1ccccc1)Nc1c[nH]c(=O)[nH]c1=O`, the Kd is reported as > 4 mM (inactive). With `CSc1ccccc1NC(=O)c1c(C)noc1C` the Kd was > 4 mM (inactive). For `O=C1CC(c2c[nH]c3ccccc23)C(=O)N1` (stereo not drawn), the Kd was > 4 mM (inactive). `O=C(Nn1cnnc1)c1csc2c1CCCC2` was tested, and the Kd was > 4 mM (inactive). In the case of `Cc1cc(NS(=O)(=O)Cc2ccccc2)no1`, the Kd is reported as > 4 mM (inactive). `O=C(NCCO)c1cc2ccccc2c(=O)s1` was tested, and the Kd was > 4 mM (inactive). For `Cc1cc(=O)n(C(N)=S)[nH]1`, the Kd was > 4 mM (inactive). With `CCOC(=O)N1CCN(c2ncnc3c2cnn3C)CC1` the Kd was > 4 mM (inactive). With `COc1ccc(Cl)cc1NC(=O)c1ccco1` the Kd was > 4 mM (inactive). For `COc1ccc(Cl)c(S(=O)(=O)N2CCCC2)c1`, the Kd was > 4 mM (inactive). For `S=C(NCC1CCCO1)NC1CC1` (stereo not drawn), the Kd was > 4 mM (inactive). `Cc1cc(=O)[nH]c(N2CCCCC2)n1` was tested, and the Kd was > 4 mM (inactive). In the case of `CN1C2CCC1CC(OC(=O)C(CO)c1ccccc1)C2` (stereo not drawn), the Kd is reported as > 4 mM (inactive). In the case of `CC(=O)Oc1ccccc1N1C(=O)C=CC1=O`, the Kd is reported as > 4 mM (inactive). For `COc1ccc(-c2c(OC)c3c(OC)c4c(cc3oc2=O)OC(C)(C)C=C4)cc1`, the Kd was > 4 mM (inactive). In the case of `CC12CNCC(C)(CNC1)C2O` (stereo not drawn), the Kd is reported as > 4 mM (inactive). `O=[n+]1cc(C2=CC=CCC2)n([O-])c2c1CCCCC2` was tested, and the Kd was > 4 mM (inactive). `Cc1ccc(C)n1NC(=O)c1ccco1` was tested, and the Kd was > 4 mM (inactive). In the case of `c1ccc(C[N+]23CCN(CC2)CC3)cc1`, the Kd is reported as > 4 mM (inactive). For `O=c1cc(CO)oc(CN2CCCCC2)c1O`, the Kd was > 4 mM (inactive). `COc1ccc(C(=O)NCC(=O)O)cc1` was tested, and the Kd was > 4 mM (inactive). For `Cn1c(CNc2ccccc2)cc(=O)n(C)c1=O`, the Kd was > 4 mM (inactive). For `O=C(Nc1ccc(-c2nnco2)cc1)c1ccccc1`, the Kd was > 4 mM (inactive). With `COc1nc(N2CCOCC2)nc(N)c1[N+](=O)[O-]` the Kd was > 4 mM (inactive). In the case of `COc1ccccc1C(=O)Nc1ccccn1`, the Kd is reported as > 4 mM (inactive). In the case of `CCOC(=O)c1c(C)nc2sccn12`, the Kd is reported as > 4 mM (inactive). With `Cc1nc(-c2ccc(C(=O)N3CCOCC3)cc2)cs1` the Kd was > 4 mM (inactive). With `NC(=O)c1cccnc1Oc1ccccc1` the Kd was > 4 mM (inactive). With `Cc1ccccc1NS(=O)(=O)c1ccc(F)cc1` the Kd was > 4 mM (inactive). For `N=C1/C(=C\c2ccccc2)C(=O)N=C2SC=NN12`, the Kd was > 4 mM (inactive). `Cc1ccc2c(c1)CCCN2C(=O)c1ccncc1` was tested, and the Kd was > 4 mM (inactive). For `CSc1nsc(SCc2cnc(C)nc2N)n1`, the Kd was > 4 mM (inactive). `Cc1[nH]ccc2c1[nH]c1cc(=O)ccc12` was tested, and the Kd was > 4 mM (inactive). With `CCNC(=O)CC1Nc2ccccc2NC1=O` (stereo not drawn) the Kd was > 4 mM (inactive). `COc1ccc(NC(=O)CSc2nccc(=O)[nH]2)cc1` was tested, and the Kd was > 4 mM (inactive). For `C/C(=C\CO)CC[C@H](C)CCC[C@H](C)CCCC(C)C`, the Kd was > 4 mM (inactive). `Cc1ccccc1NC(=O)c1ocnc1C` was tested, and the Kd was > 4 mM (inactive). With `Nc1ccc(NS(=O)(=O)c2ccc(N)cc2)cc1` the Kd was > 4 mM (inactive). `O=C(CO)N/N=C/c1ccccc1F` was tested, and the Kd was > 4 mM (inactive). With `CNC(=S)N1CCN(C(=O)c2ccco2)CC1` the Kd was > 4 mM (inactive). In the case of `COc1ccc(C[C@H]2NC[C@H](O)[C@H]2OC(C)=O)cc1`, the Kd is reported as > 4 mM (inactive). For `CSc1nc2nccc(N)n2n1`, the Kd was > 4 mM (inactive). With `C[C@@H]1OC(O[C@H]2C(O[C@H]3CC[C@@]4(C)C(CC[C@]5(C)C4CC=C4C6CC(C)(C)CC[C@]6(C(=O)O)CC[C@]45C)[C@]3(C)CO)OC[C@H](O)[C@@H]2O)[C@H](O)[C@H](O)[C@H]1O` (stereo partly drawn) the Kd was > 4 mM (inactive). `COc1cnn(-c2ccccc2)c(=O)c1N(C)C` was tested, and the Kd was > 4 mM (inactive). In the case of `O=C(/C=C/c1ccco1)NC1=NCCS1`, the Kd is reported as > 4 mM (inactive). In the case of `NCc1cccc(-n2cccc2)c1`, the Kd is reported as > 4 mM (inactive). For `O=C(O)CN1CCN(C2CCCC2)CC1`, the Kd was > 4 mM (inactive). In the case of `NC(=O)C1CCN(S(=O)(=O)c2ccccc2)CC1`, the Kd is reported as > 4 mM (inactive). `NC(=O)CSc1nc2ncnc(N)c2[nH]1` was tested, and the Kd was > 4 mM (inactive). For `CC12CN(CC#N)CC(C)(CN(CC#N)C1)C2=O`, the Kd was > 4 mM (inactive). For `COc1ccc(C(=O)NC2=NCCS2)cc1OC`, the Kd was > 4 mM (inactive). With `O=C(O[C@@H]1Cc2c(O)cc(O)cc2O[C@@H]1c1cc(O)c(O)c(O)c1)c1cc(O)c(O)c(O)c1` the Kd was > 4 mM (inactive). For `Cc1scc(C(=O)Nn2cnnc2)c1-c1ccccc1`, the Kd was > 4 mM (inactive). With `CCC(=O)Nc1ccc(-c2nn3c(C)nnc3s2)cc1` the Kd was > 4 mM (inactive). In the case of `Cc1cc(C(=O)N2CCN(c3ccccn3)CC2)no1`, the Kd is reported as > 4 mM (inactive). `N#C/C(=C\c1ccc[nH]1)S(=O)(=O)c1ccccc1` was tested, and the Kd was > 4 mM (inactive). `Cc1ccc(-c2nnn(CC(=O)O)n2)cc1` was tested, and the Kd was > 4 mM (inactive). For `CC1(C)C=Cc2cc3ccc(=O)oc3cc2O1`, the Kd was > 4 mM (inactive). With `CNC(=S)NCCN1CCOCC1` the Kd was > 4 mM (inactive). With `CNC(=O)c1cc2cccc(OC)c2oc1=O` the Kd was > 4 mM (inactive). For `CCOC(=O)C1CCN(c2ccc(C#N)cc2)CC1`, the Kd was > 4 mM (inactive). In the case of `O=c1[nH]cnc2nc[nH]c12`, the Kd is reported as > 4 mM (inactive). `C=CCCCCCCCCCCCC(O)CC(O)COC(C)=O` (stereo not drawn) was tested, and the Kd was > 4 mM (inactive). `c1ccc(Cc2nn3c(-c4ccncc4)nnc3s2)cc1` was tested, and the Kd was > 4 mM (inactive). `CN1CCC(N2CCCC(C(N)=O)C2)CC1` (stereo not drawn) was tested, and the Kd was > 4 mM (inactive). `O=C(O)C1=C[C@@H](O)[C@@H](O)[C@H](O)C1` was tested, and the Kd was > 4 mM (inactive). With `Cc1nc(NC2=NCCC(=O)N2)nc2ccccc12` the Kd was > 4 mM (inactive). `Cc1ccc(N2NC(=O)CC2=O)cc1C` was tested, and the Kd was > 4 mM (inactive). `COc1c2ccccc2nc2occc12` was tested, and the Kd was > 4 mM (inactive). `S=C(Cc1cccnc1)N1CCOCC1` was tested, and the Kd was > 4 mM (inactive). For `CC1CCCN(C/C(O)=C(\C#N)c2nc3ccccc3[nH]2)C1` (stereo not drawn), the Kd was > 4 mM (inactive). For `COc1ccc(/C=C2/NC(=S)NC2=O)cc1`, the Kd was > 4 mM (inactive). `Cc1cc(C(=O)Nc2ccon2)cs1` was tested, and the Kd was > 4 mM (inactive). For `O=C(c1nc2ncccn2n1)N1CCc2ccccc2C1`, the Kd was > 4 mM (inactive). For `CNC(=O)c1ccccc1-c1ccccc1`, the Kd was > 4 mM (inactive). `O=C(NC1CC1)c1ccccc1[N+](=O)[O-]` was tested, and the Kd was > 4 mM (inactive). In the case of `CC1(C)N=C2C(=N)C=CC=C2N1O`, the Kd is reported as > 4 mM (inactive). In the case of `CN1C2CC(OC(=O)[C@H](CO)c3ccccc3)C[C@H]1[C@H]1OC21` (stereo partly drawn), the Kd is reported as > 4 mM (inactive). With `CC1(C)CC[C@]2(C(=O)O)CC[C@]3(C)C(=CCC4[C@@]5(C)CC[C@H](O)[C@@](C)(CO)C5CC[C@]43C)C2C1` (stereo partly drawn) the Kd was > 4 mM (inactive). For `O=C(Nc1nncs1)c1c(F)c(F)c(F)c(F)c1F`, the Kd was > 4 mM (inactive). In the case of `OCCNC(=S)Nc1ccc(F)cc1`, the Kd is reported as > 4 mM (inactive). In the case of `O=c1[nH]c(=O)n(-c2ccc(F)cc2)c(O)c1/C=C1/C=CC=N1`, the Kd is reported as > 4 mM (inactive). `CSc1ccc(/C=c2\sc3ncnn3c2=O)cc1` was tested, and the Kd was > 4 mM (inactive). In the case of `Cc1nnc2n(c1=O)N=C(c1ccccc1)CS2`, the Kd is reported as > 4 mM (inactive). In the case of `O=C(O)CNCC(O)Cn1c2ccccc2c2ccccc21` (stereo not drawn), the Kd is reported as > 4 mM (inactive). In the case of `COc1cc2c(cc1OC)C1=C(C#N)CCC(=O)N1CC2`, the Kd is reported as > 4 mM (inactive). In the case of `O=C(NC1=NCCS1)c1ccc([N+](=O)[O-])cc1Cl`, the Kd is reported as > 4 mM (inactive). With `CCn1cnc2sc(C(=O)O)c(C)c2c1=O` the Kd was > 4 mM (inactive). `CC(=O)OC1CCC2(C)C3CC(=O)C4(C)C(CC5OC6(CCC(C)CO6)[C@@H](C)C54)C3CC[C@H]2C1` (stereo partly drawn) was tested, and the Kd was > 4 mM (inactive). In the case of `CCN1C(=O)N(CO)C2C1N(C)C(=O)N2C` (stereo not drawn), the Kd is reported as > 4 mM (inactive). For `COc1cccc(NC(=O)c2cnn(C)c2Cl)c1`, the Kd was > 4 mM (inactive). With `CNC(=O)Cn1c(=O)n(C)c2ccccc21` the Kd was > 4 mM (inactive). `Nc1ncnc(NC2CCS(=O)(=O)C2)c1[N+](=O)[O-]` (stereo not drawn) was tested, and the Kd was > 4 mM (inactive). For `Fc1ccc(N2CCNCC2)cc1`, the Kd was > 4 mM (inactive). `CSc1ccccc1NC(=O)c1ccncc1` was tested, and the Kd was > 4 mM (inactive). `O=C(O)c1cccnc1` was tested, and the Kd was > 4 mM (inactive). In the case of `Clc1ncc2[nH]cnc2n1`, the Kd is reported as > 4 mM (inactive). In the case of `Cc1n[nH]c(=O)nc1N1CCN(c2ccccc2)CC1`, the Kd is reported as > 4 mM (inactive). For `COc1ccc(-c2cc(=O)c3cc(OC)ccc3o2)cc1`, the Kd was > 4 mM (inactive). `O=C(Nc1nncs1)c1c(F)cccc1F` was tested, and the Kd was > 4 mM (inactive). With `Cc1ccc(C(=O)n2cnnc2N)cc1C` the Kd was > 4 mM (inactive). With `O=C1CSC(=O)N1CNc1ccccc1` the Kd was > 4 mM (inactive). With `Nc1ccc2c(c1)CCCC2=O` the Kd was > 4 mM (inactive). In the case of `O=C(CC1Nc2ccccc2NC1=O)Nc1ccc(O)cc1` (stereo not drawn), the Kd is reported as > 4 mM (inactive). `COc1ccc([C@@H](C)C(=O)c2ccc(O)cc2O)cc1` was tested, and the Kd was > 4 mM (inactive). `O=C(CSc1ncccn1)Nc1nccs1` was tested, and the Kd was > 4 mM (inactive). For `CC(=O)OCC(OC(C)=O)C(OC(C)=O)C(OC(C)=O)C(OC(C)=O)C(COC(C)=O)OC(C)=O` (stereo not drawn), the Kd was > 4 mM (inactive).
